Data taken from US12077503B2, “Substituted cyclic amides and their use as herbicides” (FMC CORPORATION, priority 2015, dated 2024).

What was measured:
Assay type in all cases: in vivo
[1] = tested on: ivy-leaved morning glory (Ipomoea hederacea); test: Test G Post-Emergence Protocol; conditions: Ipomoea, post-emergence, 312 h; for pest or weed control at 15.625 g/ha: 15.625 g ai/ha, evaluated after 13 days (100=total damage to plant; 0=no damage to plant), read-out: Morningglory, Ivy-leaved damage rating; for pest or weed control at 62.5 g/ha: 62.5 g ai/ha, read-out: Morningglory, Ivy-leaved damage rating (100=total damage to plant; 0=no damage to plant); for pest or weed control at 62.5 g/ha / pest or weed control at 250 g/ha: evaluated after 13 days; for pest or weed control at 250 g/ha: 250 g ai/ha, read-out: damage to plant, Morningglory, Ivy-leaved (100=total damage to plant; 0=no damage to plant)
Summary of the method: (§1)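 Foliar application was made 8 days after sowing, using an aqueous spray of the active in acetone/water (50:50) with 0.5% Tween 20, at doses of 15.625, 62.5 or 250 g/ha. Injury was assessed 13 days later, where 100 meant the plant was fully damaged.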

[2] = tested on: velvetleaf (Abutilon theophrasti); test: Test G Post-Emergence Protocol; conditions: Abutilon theophrasti, post-emergence, 312 h; for pest or weed control at 15.625 g/ha: 15.625 g ai/ha, evaluated after 13 days (100=total damage to plant; 0=no damage to plant), read-out: Velvetleaf damage rating; for pest or weed control at 62.5 g/ha: 62.5 g ai/ha, read-out: Velvetleaf damage rating (100=total damage to plant; 0=no damage to plant); for pest or weed control at 62.5 g/ha / pest or weed control at 250 g/ha: evaluated after 13 days; for pest or weed control at 250 g/ha: 250 g ai/ha, read-out: damage to plant, Velvetleaf (100=total damage to plant; 0=no damage to plant)
Summary of the method: as §1

corn (Zea mays) [3] = test: Test G Post-Emergence Protocol; conditions: Zea mays, post-emergence, 312 h; for plant injury at 15.625 g/ha: 15.625 g ai/ha, evaluated after 13 days (100=total damage to plant; 0=no damage to plant), read-out: Corn damage rating; for plant injury at 62.5 g/ha: 62.5 g ai/ha, read-out: Corn damage rating (100=total damage to plant; 0=no damage to plant); for plant injury at 62.5 g/ha / plant injury at 250 g/ha: evaluated after 13 days; for plant injury at 250 g/ha: 250 g ai/ha, read-out: damage to plant, Corn (100=total damage to plant; 0=no damage to plant)
Summary of the method: as §1

[4] = tested on: giant foxtail (Setaria faberi); test: Test G Post-Emergence Protocol; conditions: Setaria faberi, post-emergence, 312 h; for pest or weed control at 15.625 g/ha: 15.625 g ai/ha, evaluated after 13 days (100=total damage to plant; 0=no damage to plant), read-out: Foxtail, Giant damage rating; for pest or weed control at 62.5 g/ha: 62.5 g ai/ha, read-out: Foxtail, Giant damage rating (100=total damage to plant; 0=no damage to plant); for pest or weed control at 62.5 g/ha / pest or weed control at 250 g/ha: evaluated after 13 days; for pest or weed control at 250 g/ha: 250 g ai/ha, read-out: damage to plant, Foxtail, Giant (100=total damage to plant; 0=no damage to plant)
Summary of the method: as §1

[5] = tested on: redroot pigweed (Amaranthus retroflexus); test: Test G Post-Emergence Protocol; conditions: Amaranthus retroflexus, post-emergence, 312 h; for pest or weed control at 15.625 g/ha: 15.625 g ai/ha, evaluated after 13 days (100=total damage to plant; 0=no damage to plant), read-out: Pigweed, Redroot damage rating; for pest or weed control at 62.5 g/ha: 62.5 g ai/ha, read-out: Pigweed, Redroot damage rating (100=total damage to plant; 0=no damage to plant); for pest or weed control at 62.5 g/ha / pest or weed control at 250 g/ha: evaluated after 13 days; for pest or weed control at 250 g/ha: 250 g ai/ha, read-out: damage to plant, Pigweed, Redroot (100=total damage to plant; 0=no damage to plant)
Summary of the method: as §1

[6] = tested on: barnyardgrass (Echinochloa crus-galli); test: Test G Post-Emergence Protocol; conditions: Echinochloa crus-galli, post-emergence, 312 h; for pest or weed control at 15.625 g/ha: 15.625 g ai/ha, evaluated after 13 days (100=total damage to plant; 0=no damage to plant), read-out: Barnyardgrass damage rating; for pest or weed control at 62.5 g/ha: 62.5 g ai/ha, read-out: Barnyardgrass damage rating (100=total damage to plant; 0=no damage to plant); for pest or weed control at 62.5 g/ha / pest or weed control at 250 g/ha: evaluated after 13 days; for pest or weed control at 250 g/ha: 250 g ai/ha, read-out: damage to plant, Barnyardgrass (100=total damage to plant; 0=no damage to plant)
Summary of the method: as §1

[7] = tested on: ivy-leaved morning glory (Ipomoea hederacea); test: Test G Pre-Emergence Protocol; conditions: Ipomoea, pre-emergence, 312 h, evaluated after 13 days; for pest or weed control at 15.625 g/ha: 15.625 g ai/ha, read-out: Morning-glory, Ivy-leaved damage rating (100=total damage to plant; 0=no damage to plant); for pest or weed control at 62.5 g/ha: 62.5 g ai/ha, 100=total damage to plant, 0=no damage to plant, read-out: plant damage rating, Morningglory, Ivy-leaved; for pest or weed control at 250 g/ha: 250 g ai/ha, read-out: Morningglory, Ivy-leaved damage rating (100=total damage to plant; 0=no damage to plant)
Summary of the method: (§2)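 Pots of seeds in standard soil were grown for one day in a glasshouse (24/16 °C day/night, 14 h light, 65% humidity), then sprayed with compound in acetone/water 50:50 with 0.5% Tween 20 at 15.625, 62.5 or 250 g/ha. Damage was scored after 13 days on a 0 (none) to 100 (total) scale.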

[8] = tested on: velvetleaf (Abutilon theophrasti); test: Test G Pre-Emergence Protocol; conditions: Abutilon theophrasti, pre-emergence, 312 h, evaluated after 13 days; for pest or weed control at 15.625 g/ha: 15.625 g ai/ha; for pest or weed control at 15.625 g/ha / pest or weed control at 250 g/ha: read-out: Velvetleaf damage rating (100=total damage to plant; 0=no damage to plant); for pest or weed control at 62.5 g/ha: 62.5 g ai/ha, 100=total damage to plant, 0=no damage to plant, read-out: plant damage rating, Velvetleaf; for pest or weed control at 250 g/ha: 250 g ai/ha
Summary of the method: as §2

corn (Zea mays) [9] = test: Test G Pre-Emergence Protocol; conditions: Zea mays, pre-emergence, 312 h, evaluated after 13 days; for plant injury at 15.625 g/ha: 15.625 g ai/ha; for plant injury at 15.625 g/ha / plant injury at 250 g/ha: read-out: Corn damage rating (100=total damage to plant; 0=no damage to plant); for plant injury at 62.5 g/ha: 62.5 g ai/ha, 100=total damage to plant, 0=no damage to plant, read-out: plant damage rating, Corn; for plant injury at 250 g/ha: 250 g ai/ha
Summary of the method: as §2

[10] = tested on: giant foxtail (Setaria faberi); test: Test G Pre-Emergence Protocol; conditions: Setaria faberi, pre-emergence, 312 h, evaluated after 13 days; for pest or weed control at 15.625 g/ha: 15.625 g ai/ha; for pest or weed control at 15.625 g/ha / pest or weed control at 250 g/ha: read-out: Foxtail, Giant damage rating (100=total damage to plant; 0=no damage to plant); for pest or weed control at 62.5 g/ha: 62.5 g ai/ha, 100=total damage to plant, 0=no damage to plant, read-out: plant damage rating, Foxtail, Giant; for pest or weed control at 250 g/ha: 250 g ai/ha
Summary of the method: as §2

[11] = tested on: redroot pigweed (Amaranthus retroflexus); test: Test G Pre-Emergence Protocol; conditions: Amaranthus retroflexus, pre-emergence, 312 h, evaluated after 13 days; for pest or weed control at 15.625 g/ha: 15.625 g ai/ha; for pest or weed control at 15.625 g/ha / pest or weed control at 250 g/ha: read-out: Pigweed, Redroot damage rating (100=total damage to plant; 0=no damage to plant); for pest or weed control at 250 g/ha: 250 g ai/ha
Summary of the method: as §2

[12] = tested on: barnyardgrass (Echinochloa crus-galli); test: Test G Pre-Emergence Protocol; conditions: Echinochloa crus-galli, pre-emergence, 312 h, evaluated after 13 days; for pest or weed control at 15.625 g/ha: 15.625 g ai/ha, read-out: Barnyard grass damage rating (100=total damage to plant; 0=no damage to plant); for pest or weed control at 62.5 g/ha: 62.5 g ai/ha, 100=total damage to plant, 0=no damage to plant, read-out: plant damage rating, Barnyardgrass; for pest or weed control at 250 g/ha: 250 g ai/ha, read-out: Barnyardgrass damage rating (100=total damage to plant; 0=no damage to plant)
Summary of the method: as §2

| Compound | pest or weed control at 15.625 g/ha [1] | pest or weed control at 62.5 g/ha [1] | pest or weed control at 250 g/ha [1] | pest or weed control at 15.625 g/ha [2] | pest or weed control at 62.5 g/ha [2] | pest or weed control at 250 g/ha [2] | plant injury at 15.625 g/ha (corn (Zea mays) [3]) | plant injury at 62.5 g/ha (corn (Zea mays) [3]) | plant injury at 250 g/ha (corn (Zea mays) [3]) | pest or weed control at 15.625 g/ha [4] | pest or weed control at 62.5 g/ha [4] | pest or weed control at 250 g/ha [4] | pest or weed control at 15.625 g/ha [5] | pest or weed control at 62.5 g/ha [5] | pest or weed control at 250 g/ha [5] | pest or weed control at 15.625 g/ha [6] | pest or weed control at 62.5 g/ha [6] | pest or weed control at 250 g/ha [6] | pest or weed control at 15.625 g/ha [7] | pest or weed control at 62.5 g/ha [7] | also measured |
| --- | --- | --- | --- | --- | --- | --- | --- | --- | --- | --- | --- | --- | --- | --- | --- | --- | --- | --- | --- | --- | --- |
| Cc1cccc(NC(=O)[C@H]2C(=O)N(C)C[C@@H]2c2ccc(C(F)(F)F)cc2)n1 (racemic) [Compound 1429] | 0% | 10% | 20% | 0% | 0% | 30% | 10% | 0% | 10% | 0% | 30% | 40% | 0% | 0% | 80% | 0% | 10% | 20% | 0% | 0% | pest or weed control at 250 g/ha [7]: 0%; pest or weed control at 15.625 g/ha [8]: 0%; pest or weed control at 62.5 g/ha [8]: 0%; pest or weed control at 250 g/ha [8]: 50%; plant injury at 15.625 g/ha (corn (Zea mays) [9]): 0%; plant injury at 62.5 g/ha (corn (Zea mays) [9]): 0%; plant injury at 250 g/ha (corn (Zea mays) [9]): 0%; pest or weed control at 15.625 g/ha [10]: 0%; pest or weed control at 62.5 g/ha [10]: 70%; pest or weed control at 250 g/ha [10]: 80%; pest or weed control at 15.625 g/ha [11]: 0%; pest or weed control at 62.5 g/ha ([11]; 62.5 g ai/ha, 100=total damage to plant, 0=no damage to plant, read-out: plant damage rating, Pigweed, Redroot): 0%; pest or weed control at 250 g/ha [11]: 0%; pest or weed control at 15.625 g/ha [12]: 0%; pest or weed control at 62.5 g/ha [12]: 40%; pest or weed control at 250 g/ha [12]: 70% |
| CN1C[C@H](c2ccc(C(F)(F)F)cc2)[C@@H](C(=O)Nc2ccccc2S(C)(=O)=O)C1=O (racemic) [Compound 1459] | 0% | 0% | 20% | 0% | 0% | 0% | 10% | 10% | 10% | 10% | 60% | 60% | 30% | 40% | 40% | 0% | 10% | 20% | 0% | 0% | pest or weed control at 250 g/ha [7]: 0%; pest or weed control at 15.625 g/ha [8]: 0%; pest or weed control at 62.5 g/ha [8]: 0%; pest or weed control at 250 g/ha [8]: 0%; plant injury at 15.625 g/ha (corn (Zea mays) [9]): 0%; plant injury at 62.5 g/ha (corn (Zea mays) [9]): 0%; plant injury at 250 g/ha (corn (Zea mays) [9]): 0%; pest or weed control at 15.625 g/ha [10]: 40%; pest or weed control at 62.5 g/ha [10]: 60%; pest or weed control at 250 g/ha [10]: 80%; pest or weed control at 15.625 g/ha [11]: 0%; pest or weed control at 250 g/ha [11]: 60%; pest or weed control at 15.625 g/ha [12]: 20%; pest or weed control at 62.5 g/ha [12]: 60%; pest or weed control at 250 g/ha [12]: 60% |
